Source: PubChem BioAssay AID2060357 (Molecular Pharmacology Branch, DTP, NCI, 2025)
“And” between values parts separate entries of the source, which are not always exact repeats. Equal values may be shown once.

System: 292921-168-R-J2-PDC spheroids with HUVEC/MSC, viability
Experiment: Anticancer human tumor 292921-168-R-J2-PDC patient-derived pancreatic carcinoma cell line growth inhibition [TAK]
Conditions: for viability, T/C: stronger effect = lower value; active = viability on the fitted dose curve at most 10% of control; inactive = the rest
Source text: Combinatorial screen of targeted agents with TAK-243 and ipatasertib in multi-cell type tumor spheroids
A high-throughput screen of multi-cell type tumor spheroids was designed to identify active combinations of targeted small molecules and TAK-243 or ipatasertib. Complex spheroids include a stromal component modeled by human endothelial cells (HUVEC) and fibroblasts modeled by human mesenchymal stem cells (MSCs). The concentration ranges selected for each drug and investigational agent were based upon clinically achievable concentrations if the clinical Cmax of the agent was known.
Compounds. The drugs and investigational agents: TAK-243 (785004), ipatasertib (767898), everolimus (733504), selumetinib (741078), bortezomib (756655), trametinib (758246), ixazomib (758254), vemurafenib (761431), dabrafenib (764134), sapanisertib (764658), alpelisib (765974), and copanlisib (816437), were obtained from the National Cancer Institute (NCI) Developmental Therapeutics Program Chemical Repository. The FDA-approved anticancer drug set is available from the NCI Developmental Therapeutics Program. […] The stock solutions were prepared in dimethyl sulfoxide (DMSO, Sigma-Aldrich, St. Louis, MO, cat. D2650) at 800-fold the tested concentration and stored at -70 degrees C prior to their use. All drugs and investigational agents were tested over a range starting from a high concentration at or near the clinical Cmax and decreasing in half-log increments. If the clinical Cmax for an agent had not been determined, the highest concentration tested was 10 microM.
NCI60 Cell Culture. NCI60 cell lines were obtained from the NCI Developmental Therapeutics Program Tumor Repository. For each lot of cells, the Repository performed Applied Biosystems AmpFLSTR Identifiler testing with PCR amplification to confirm consistency with the published Identifier STR profile for each cell line. Cells were kept in continuous culture for no more than 20 passages. The optimal seeding densities for each of the cell lines at each time point assessed were determined prior to performing the concentration response studies. Briefly, the NCI60 human tumor lines were grown as monolayers in RPMI 1640 medium supplemented with 10% FBS and 2 mmol/L L-glutamine.
An additional 2 lines were from the NCI60 cell line panel including melanomas, MALME-3M and SK-MEL-2. Pooled donor human umbilical vein endothelial cells (HUVEC, Lonza, cat. CC-2519) and human mesenchymal stem cells (hMSC, Lonza, cat. PT-2501) were purchased from Lonza (Walkersville, MD).
PDMR cell lines were grown in complete medium (DC medium): Dulbecco's modified Eagle's medium (DMEM)/F12 supplemented with 5% fetal bovine serum (FBS), 2 mM L-glutamine, 100 U/mL penicillin and 100 µg/ml streptomycin, 0.4 µg/ml hydrocortisone, 10 ng/ml epidermal growth factor (EGF) recombinant human protein, 24 µg/mL adenine, and 0.1 mg/mL primocin. During culture from frozen stock vials, PDMR cells were cultured in the same medium containing 10 µM Y-27632 (see Table 3). The PDCs were cultured in complete DMEM/F12 media without 10 microM Y-27632 dihydrochloride for at least two passages prior to the screen. The pooled donor HUVEC and hMSC were cultured in endothelial cell growth medium 2 (PromoCell, Heidelberg, Germany, cat. C-22011) and mesenchymal stem cell growth medium 2 (PromoCell, cat. C-28009), respectively. For all experiments, HUVEC and hMSC were used at passages </=5.
For the pre-screen, cell seeding densities were determined from a titration spanning the range from 5,000 to 313 cells per well. The mct-spheroids including 60% malignant cells, 25% HUVEC and 15% MSC dispensed as a mixture into U-bottom Ultra-Low Attachment 384-well plates (Corning, NY)
High-throughput Drug Combination Screening.
Prior to their inoculation into 384-well plates, malignant cells, HUVEC, and hMSC were removed from T flasks using TrypLE express (Thermo Fisher Scientific, cat. 12605036) and harvested by centrifugation for 5 min at 233 x g. […]
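Note: spheroids exposed to drugs for seven days before readout.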

CC(=O)Nc1cccc(-n2c(=O)n(C3CC3)c(=O)c3c(Nc4ccc(I)cc4F)n(C)c(=O)c(C)c32)c1 + CC(C)NCC(C(=O)N1CCN(c2ncnc3c2C(C)CC3O)CC1)c1ccc(Cl)cc1
0.337 nM: IC50 (curve of first compound, second compound 0.949 µM)
< 0.0949 nM: IC50 (curve of first compound, second compound 30 µM)
0.209 nM: IC50 (curve of first compound, second compound 3 µM)
active: viability, T/C (second compound 30 µM, first compound 0.03 µM) 9.91%
0.11 nM: IC50 (curve of first compound, second compound 9.49 µM)
inactive: viability, T/C (second compound 0.3 µM, first compound 94.9 pM) 74.9% | viability, T/C (second compound 0.3 µM, first compound 0.0003 µM) 59.5% | viability, T/C (second compound 0.3 µM, first compound 0.000949 µM) 32.6% | viability, T/C (second compound 0.3 µM, first compound 0.003 µM) 25.7% | viability, T/C (second compound 0.3 µM, first compound 0.00949 µM) 19.8% | viability, T/C (second compound 0.3 µM, first compound 0.03 µM) 13.9% | viability, T/C (second compound 0.949 µM, first compound 94.9 pM) 70.5% | viability, T/C (second compound 0.949 µM, first compound 0.0003 µM) 51.8% | viability, T/C (second compound 0.949 µM, first compound 0.000949 µM) 35.6% | viability, T/C (second compound 0.949 µM, first compound 0.003 µM) 26.6% | viability, T/C (second compound 0.949 µM, first compound 0.00949 µM) 17.8% | viability, T/C (second compound 0.949 µM, first compound 0.03 µM) 13.1% | viability, T/C (second compound 3 µM, first compound 94.9 pM) 63.8% | viability, T/C (second compound 3 µM, first compound 0.0003 µM) 44% | viability, T/C (second compound 3 µM, first compound 0.000949 µM) 28.8% | viability, T/C (second compound 3 µM, first compound 0.003 µM) 22.5% | viability, T/C (second compound 3 µM, first compound 0.00949 µM) 16.6% | viability, T/C (second compound 3 µM, first compound 0.03 µM) 12.3% | viability, T/C (second compound 9.49 µM, first compound 94.9 pM) 51.4% | viability, T/C (second compound 9.49 µM, first compound 0.0003 µM) 39% | viability, T/C (second compound 9.49 µM, first compound 0.000949 µM) 25.4% | viability, T/C (second compound 9.49 µM, first compound 0.003 µM) 18.8% | viability, T/C (second compound 9.49 µM, first compound 0.00949 µM) 14.3% | viability, T/C (second compound 9.49 µM, first compound 0.03 µM) 10.7% | viability, T/C (second compound 30 µM, first compound 94.9 pM) 34.9% | viability, T/C (second compound 30 µM, first compound 0.0003 µM) 26.6% | viability, T/C (second compound 30 µM, first compound 0.000949 µM) 20.3% | viability, T/C (second compound 30 µM, first compound 0.003 µM) 16% | viability, T/C (second compound 30 µM, first compound 0.00949 µM) 12.2%
0.45 nM: IC50 (curve of first compound, second compound 0.3 µM)

CC(C)NCC(C(=O)N1CCN(c2ncnc3c2C(C)CC3O)CC1)c1ccc(Cl)cc1 (stereo not given)
inactive: viability, T/C (compound 0.3 µM) 87.8% [middle of 10 runs] | viability, T/C (compound 0.949 µM) 83% [middle of 10 runs] | viability, T/C (compound 3 µM) 77.3% [middle of 10 runs] | viability, T/C (compound 9.49 µM) 62.3% [middle of 10 runs] | viability, T/C (compound 30 µM) 42.4% [middle of 10 runs]
18800 nM: IC50 (compound alone, run of 02/20/2020)

CCCS(=O)(=O)Nc1ccc(F)c(C(=O)c2c[nH]c3ncc(-c4ccc(Cl)cc4)cc23)c1F
inactive: viability, T/C (compound 0.316 µM) 113% and 128% | viability, T/C (compound 1 µM) 117% and 127% | viability, T/C (compound 3.16 µM) 108% and 113% | viability, T/C (compound 10 µM) 55.1% and 67.5% | viability, T/C (compound 31.6 µM) 99.6% and 62.3% | viability, T/C (compound 100 µM) 80% and 94.5%
> 100000 nM: IC50 (curve of compound)

COC1CC2CCC(C)C(O)(O2)C(=O)C(=O)N2CCCCC2C(=O)OC(C(C)CC2CCC(OCCO)C(OC)C2)CC(=O)C(C)C=C(C)C(O)C(OC)C(=O)C(C)CC(C)C=CC=CC=C1C (stereo not given)
inactive: viability, T/C (compound 0.000316 µM) 83.9% and 83.3% | viability, T/C (compound 0.001 µM) 76.6% and 71.4% | viability, T/C (compound 0.00316 µM) 71.5% and 66.5% | viability, T/C (compound 0.01 µM) 64.1% and 59% | viability, T/C (compound 0.0316 µM) 59.8% and 64.2% | viability, T/C (compound 0.1 µM) 59.2% and 62.3%
> 100 nM: IC50 (curve of compound)
